Source: patent US7232837B2, “Stereoisomers with high affinity for adrenergic receptors” (McNeil-PPC, Inc., priority 1999, dated 2007)

Experiments:
[1] = target: α2 adrenergic receptors; experiment: Alpha-2 binding, 125iodoclonidine, canine brain (frontal cortex) membranes; design: species or system canine (mongrel dogs); settings: canine brain membranes; for IC50: inhibition of specific p-iodoclonidine binding; for Ki: p-iodoclonidine
Experimental: BRAIN ALPHA-2 RECEPTORS: Membranes of mongrel dogs were harvested from the canine frontal cortex and prepared as described for lung except that the final membrane protein concentration was adjusted to 0.5 mg/ml.
ALPHA-2 BINDING ^125IODOCLONIDINE. […] Nonspecific binding was determined in separate incubations in the presence of 10 μM phentolamine. The final concentration of p-iodoclonidine was 44–45 pM in competition studies and between 50 pM and 10 nM in saturation experiments. Bound and free p-^125iodoclonidine were separated and the bound quantified as described above for the ICYP assays. […] BETA-2 BINDING, ^125IODOCYANOPINDOLOL (^125ICYP). […] Nonspecific binding was determined in separate incubations in the presence of 2 μM d,l-propranolol. Each experimental point was determined in triplicate. […] Incubations were terminated as described above for the α1 assays. Filters were placed into polyethylene tubes and the bound ligand was determined by gamma spectrometry (Sano et al., 1993).
All data were analyzed with the aid of microcomputer nonlinear curve fitting programs (PRISM 2.0, Graphpad Software, San Diego Calif.).
The receptors resident in each of the three membrane preparations were evaluated by standard saturation analysis following the addition of increasing concentrations of the appropriate radioligand. […] The radio ligand added for subsequent α2-displacement assays was adjusted to evaluate only the high affinity receptor. Contributions from p-iodoclonidine binding to imidazoline receptors in the α2-displacement assay were evaluated with epinephrine.
The variable, I, is the concentration of tracer added and the variable, Kd, is the equilibrium dissociation constant empirically determined for this receptor population.

[2] = test system: Dog; experiment: Dosage which raised mean arterial pressure 10%, dog; assay type: in vivo
[3] = test system: Rat; experiment: Dosage which raised mean arterial pressure 10%, rat; assay type: in vivo
[4] = test system: Sprague Dawley rats; experiment: Nasal airway pressure in histamine-challenged rats
[5] = test system: Sprague Dawley rats; experiment: Nasal airway pressure in non-histamine-challenged rats; settings: for Mean Decrease in Nasal Airway Pressure: rats, i.v., ± SEM

Compound	IC50 [1]	Ki [1]	Dosage of Enantiomer which raised mean arterial pressure 10%, Dog [2]	Dosage of Enantiomer which raised mean arterial pressure 10%, Rat [3]	nasal airway pressure, Post Drug ([4]; 100% dose i.v. after histamine challenge)	nasal airway pressure, % Change ([4]; 100% dose i.v. after histamine challenge, post drug vs post histamine)	nasal airway pressure, Post Histamine ([4]; after intranasal histamine 50 mM, before drug)	nasal airway pressure, Control ([4]; before histamine and drug)	Mean Decrease in Nasal Airway Pressure ([5]; 5% of the dose that increased mean arterial pressure 10%)	Mean Decrease in Nasal Airway Pressure ([5]; 10% of the dose that increased mean arterial pressure 10%)	Mean Decrease in Nasal Airway Pressure ([5]; 25% of the dose that increased mean arterial pressure 10%)	Mean Decrease in Nasal Airway Pressure ([5]; 50% of the dose that increased mean arterial pressure 10%)	nasal airway pressure, Post Drug ([5]; 100% dose i.v. (jugular vein), non-histamine-challenged rats)	nasal airway pressure, % Change ([5]; 100% dose i.v., non-histamine-challenged rats, post drug vs control)	nasal airway pressure, Control ([5]; before drug, non-histamine-challenged rats)
(−)-norpseudoephedrine	10 µM	8 µM													
(+)-norpseudoephedrine	5 µM	4 µM													
CNC[C@@H](O)c1cccc(O)c1 [(+)-Phenylephrine, (+)-phenylephrine]			80 µg/kg	24 µg	5.5 ± 0.5 mm water	−35.2 ± 2.5%	8.7 ± 1.1 mm water	6.5 ± 0.4 mm water	−4.00 ± 1.2	−2.5 ± 1.0	−4.6 ± 1.4	−10.2 ± 3.9	8 ± 0.3 mm H2O	−12.2 ± 3.1%	9 ± 0.4 mm H2O
